Read-outs that look alike come from different tables or passages of the source.
Target: T1, GLP-1 receptor (Homo sapiens, UniProt P43220)
T1 construct: expressed in transfected cells; host or cells: CHO-K1
Experiment: cAMP assay (HTRF) in GLP-1 receptor CHO-K1 cells
Assay type: cell-based
Conditions: for Emax: CHO-K1, cAMP stimulation ratio
Protocol: The cAMP assay test was performed according to a method optimized based on a protocol provided by cAMP assay kit manufacturer (CISBIO). […] 54, of the compounds according to the Examples 1, 2, 5, 8, 12, 13, 15, 16, 19, 20, 23, 29, 32, 37, 39 and 43 at the concentration of 0, 1, 10, 100, 1000, 10000 nM was treated to each of the wells of the other plates, respectively. The cells were incubated at room temperature for 7 minutes. A cAMP-d2 conjugate reagent was prepared by mixing a cAMP conjugate with an elution buffer at a ratio of 1:4. An anti-cAMP cryptate conjugate reagent was prepared by mixing a […] with an elution buffer at a ratio of 1:4. Then, 5 μL, of the cAMP-d2 conjugate reagent was added to each of the wells. Subsequently, 5 μL, of the anti-cAMP cryptate conjugate reagent was added to each of the wells. After incubation of the cells at room temperature for 1 hour, HTRF signals at wavelengths of 665 nm and 620 nm of the culture were measured using a FlexStaton 3 (Molecular Devices) instrument. The ratio of 665/620 was calculated from the measured values at 665 nm and 620 nm with regard to Exendin-4 and the compounds of the Examples, respectively.

[1] = 665/620 ratio with Exendin-4 converted to 100%

T1 sequence (P43220 24-463, species assumed): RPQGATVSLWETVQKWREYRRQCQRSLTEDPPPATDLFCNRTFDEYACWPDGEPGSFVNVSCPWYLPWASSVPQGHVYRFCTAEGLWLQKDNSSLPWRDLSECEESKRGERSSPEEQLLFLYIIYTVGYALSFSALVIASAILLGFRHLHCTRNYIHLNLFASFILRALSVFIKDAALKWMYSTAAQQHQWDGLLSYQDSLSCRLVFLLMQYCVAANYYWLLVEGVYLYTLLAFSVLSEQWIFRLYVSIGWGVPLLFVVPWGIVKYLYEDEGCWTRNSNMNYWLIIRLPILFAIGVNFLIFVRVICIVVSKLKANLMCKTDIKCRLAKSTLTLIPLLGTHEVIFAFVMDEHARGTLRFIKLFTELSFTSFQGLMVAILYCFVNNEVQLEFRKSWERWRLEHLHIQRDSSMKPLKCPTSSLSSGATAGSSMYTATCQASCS

| Structure (SMILES) | EC50 [nM] | Emax [1] [%] | EC50 (GLP-1 receptor CHO-K1 cells, cAMP HTRF, 7 minutes incubation at room temperature) [nM] | Emax (%) (cAMP stimulation ratio, 665/620 ratio with Exendin-4 converted to 100%) |
| --- | --- | --- | --- | --- |
| O=C(O)c1ccc2nc(CN3CCC(Oc4cccc(NCc5ccc(Cl)cc5F)n4)CC3)n(C[C@@H]3CCO3)c2c1 [Example 5, (S)-2-((4-((6-((4-chloro-2-fluorobenzyl)amino)pyridin-2-yl)oxy)piperidin-1-yl)methyl)-1-(oxetan-2-ylmethyl)-1H-benzo[d]imidazole-6-carboxylic acid] | 100 to 200 | 107 |  |  |
| O=C(O)c1ccc2nc(CN3CCC(Nc4cccc(OCc5ccc(Cl)cc5F)n4)CC3)n(C[C@@H]3CCO3)c2c1 [Example 12, (S)-2-((4-((6-((4-chloro-2-fluorobenzyl)oxy)pyridin-2-yl)amino)piperidin-1-yl)methyl)-1-(oxetan-2-ylmethyl)-1H-benzo[d]imidazole-6-carboxylic acid] | < 100 | 103 |  |  |
| O=C(O)c1ccc2nc(CN3CC[C@@H](Nc4cccc(OCc5ccc(Cl)cc5F)n4)C3)n(C[C@@H]3CCO3)c2c1 [Example 15, 2-(((R)-3-((6-((4-chloro-2-fluorobenzyl)oxy)pyridin-2-yl)amino)pyrrolidin-1-yl)methyl)-1-(((S)-oxetan-2-yl)methyl)-1H-benzo[d]imidazole-6-carboxylic acid] | < 100 | 99.6 |  |  |
| O=C(O)c1ccc2nc(CN3CC[C@@H](Nc4cccc(OCc5ccc(Cl)cc5F)n4)C3)n(C[C@@H]3CCO3)c2n1 [Example 16, 2-(((R)-3-((6-((4-chloro-2-fluorobenzyl)oxy)pyridin-2-yl)amino)pyrrolidin-1-yl)methyl)-3-(((S)-oxetan-2-yl)methyl)-3H-imidazo[4,5-b]pyridine-5-carboxylic acid] | < 100 | 95 |  |  |
| N#Cc1ccc(COc2cncc(NC3CCN(Cc4nc5ccc(C(=O)O)cc5n4C[C@@H]4CCO4)CC3)n2)c(F)c1 [Example 19, (S)-2-((4-((6-((4-cyano-2-fluorobenzyl)oxy)pyrazin-2-yl)amino)piperidin-1-yl)methyl)-1-(oxetan-2-ylmethyl)-1H-benzo[d]imidazole-6-carboxylic acid] | 100 to 200 | 97 |  |  |
| N#Cc1ccc(COc2cccc(N[C@@H]3CCN(Cc4nc5ccc(C(=O)O)cc5n4C[C@@H]4CCO4)C3)n2)c(F)c1 [Example 20, 2-((3-((6-((4-cyano-2-fluorobenzyl)oxy)pyridin-2-yl)amino)pyrrolidin-1-yl)methyl)-1-(((S)-oxetan-2-yl)methyl)-1H-benzo[d]imidazole-6-carboxylic acid] | < 100 | 96.3 |  |  |
| O=C(O)c1ccc2nc(CN3CC[C@@H](Nc4ncc(F)c(OCc5ccc(Cl)cc5F)n4)C3)n(C[C@@H]3CCO3)c2c1 [Example 29, 2-(((R)-3-((4-((4-chloro-2-fluorobenzyl)oxy)-5-fluoropyrimidin-2-yl)amino)pyrrolidin-1-yl)methyl)-1-(((S)-oxetan-2-yl)methyl)-1H-benzo[d]imidazole-6-carboxylic acid] | < 100 | 99.2 |  |  |
| N#Cc1ccc(COc2cccc(N[C@@H]3CCN(Cc4nc5ccc(C(=O)O)cc5n4C[C@@H]4CCO4)C3)n2)c(F)c1 [Example 32, 2-(((R)-3-((6-((4-cyano-2-fluorobenzyl)oxy)pyridin-2-yl)amino)pyrrolidin-1-yl)methyl)-1-(((S)-oxetan-2-yl)methyl)-1H-benzo[d]imidazole-6-carboxylic acid] |  |  | < 100 | 96.94 |
| N#Cc1ccc(COc2ccnc(N[C@@H]3CCN(Cc4nc5ccc(C(=O)O)cc5n4C[C@@H]4CCO4)C3)n2)c(F)c1 [Example 43, 2-(((R)-3-((4-((4-cyano-2-fluorobenzyl)oxy)pyrimidin-2-yl)amino)pyrrolidin-1-yl)methyl)-1-(((S)-oxetan-2-yl)methyl)-1H-benzo[d]imidazole-6-carboxylic acid] | < 100 | 110 |  |  |

Continued, values first:

| EC50 [nM] | Emax [1] [%] | EC50 (GLP-1 receptor CHO-K1 cells, cAMP HTRF, 7 minutes incubation at room temperature) [nM] | Emax (%) (cAMP stimulation ratio, 665/620 ratio with Exendin-4 converted to 100%) | Structure (SMILES) |
| --- | --- | --- | --- | --- |
| < 100 | 96.3 |  |  | N#Cc1ccc(COc2cccc(NC3CCN(Cc4nc5ccc(C(=O)O)cc5n4C[C@@H]4CCO4)CC3)n2)c(F)c1 [Example 1, (S)-2-((4-((6-((4-cyano-2-fluorobenzyl)oxy)pyridin-2-yl)amino)piperidin-1-yl)methyl)-1-(oxetan-2-ylmethyl)-1H-benzo[d]imidazole-6-carboxylic acid] |
| 100 to 200 | 102 |  |  | N#Cc1ccc(COc2cccc(NC3CCN(Cc4nc5ccc(C(=O)O)cc5n4C[C@@H]4CCO4)CC3)c2)c(F)c1 [Example 2, (S)-2-((4-((3-((4-cyano-2-fluorobenzyl)oxy)phenyl)amino)piperidin-1-yl)methyl)-1-(oxetan-2-ylmethyl)-1H-benzo[d]imidazole-6-carboxylic acid] |
| < 100 | 99.6 |  |  | N#Cc1ccc(COc2cc(N[C@@H]3CCN(Cc4nc5ccc(C(=O)O)cc5n4C[C@@H]4CCO4)C3)ccc2F)nc1 [Example 8, 2-(((R)-3-((3-((5-cyanopyridin-2-yl)methoxy)-4-fluorophenyl)amino)pyrrolidin-1-yl)methyl)-1-(((S)-oxetan-2-yl)methyl)-1H-benzo[d]imidazole-6-carboxylic acid] |
| < 100 | 94.5 |  |  | O=C(O)c1ccc2nc(CN3CCC(Nc4cccc(OCc5ccc(Cl)cc5F)n4)CC3)n(C[C@@H]3CCO3)c2n1 [Example 13] |
| 100 to 200 | 99.8 |  |  | N#Cc1ccc(COc2nccc(N[C@@H]3CCN(Cc4nc5ccc(C(=O)O)cc5n4C[C@@H]4CCO4)C3)n2)c(F)c1 [Example 23, 2-(((R)-3-((2-((4-cyano-2-fluorobenzyl)oxy)pyrimidin-4-yl)amino)pyrrolidin-1-yl)methyl)-1-(((S)-oxetan-2-yl)methyl)-1H-benzo[d]imidazole-6-carboxylic acid] |
| < 100 | 127 |  |  | N#Cc1ccc(COc2cccc(N[C@@H]3CCN(Cc4nc5ccc(C(=O)O)cc5n4C[C@@H]4CCO4)C3)c2)c(F)c1 [Example 37, 2-(((R)-3-((3-((4-cyano-2-fluorobenzyl)oxy)phenyl)amino)pyrrolidin-1-yl)methyl)-1-(((S)-oxetan-2-yl)methyl)-1H-benzo[d]imidazole-6-carboxylic acid] |
| 100 to 200 | 96.6 |  |  | O=C(O)c1ccc2nc(CN3CCC(Nc4cccc(OCc5ccc(Cl)cn5)n4)CC3)n(C[C@@H]3CCO3)c2c1 [Example 39, (S)-2-((4-((6-((5-chloropyridin-2-yl)methoxy)pyridin-2-yl)amino)piperidin-1-yl)methyl)-1-(oxetan-2-ylmethyl)-1H-benzo[d]imidazole-6-carboxylic acid] |

Source: patent US20230002348A1 (ILDONG PHARMACEUTICAL CO., LTD., priority 2019, published 2023)
